Data reported in patent publication US20120059162A1, “FUSED IMIDAZOLE DERIVATIVE HAVING TTK INHIBITORY ACTION” (Oncotherapy Science, Inc., priority 2009, published 2012).

Key:
TTK = molecular target: T1, TTK (Homo sapiens, UniProt P33981); assay: TTK assay: screening of TTK kinase activity suppressing action using p38 MAPK peptide; format: biochemical; conditions: p38 MAPK peptide substrate; read-out: TTK IC50
T1 sequence (P33981 1-857): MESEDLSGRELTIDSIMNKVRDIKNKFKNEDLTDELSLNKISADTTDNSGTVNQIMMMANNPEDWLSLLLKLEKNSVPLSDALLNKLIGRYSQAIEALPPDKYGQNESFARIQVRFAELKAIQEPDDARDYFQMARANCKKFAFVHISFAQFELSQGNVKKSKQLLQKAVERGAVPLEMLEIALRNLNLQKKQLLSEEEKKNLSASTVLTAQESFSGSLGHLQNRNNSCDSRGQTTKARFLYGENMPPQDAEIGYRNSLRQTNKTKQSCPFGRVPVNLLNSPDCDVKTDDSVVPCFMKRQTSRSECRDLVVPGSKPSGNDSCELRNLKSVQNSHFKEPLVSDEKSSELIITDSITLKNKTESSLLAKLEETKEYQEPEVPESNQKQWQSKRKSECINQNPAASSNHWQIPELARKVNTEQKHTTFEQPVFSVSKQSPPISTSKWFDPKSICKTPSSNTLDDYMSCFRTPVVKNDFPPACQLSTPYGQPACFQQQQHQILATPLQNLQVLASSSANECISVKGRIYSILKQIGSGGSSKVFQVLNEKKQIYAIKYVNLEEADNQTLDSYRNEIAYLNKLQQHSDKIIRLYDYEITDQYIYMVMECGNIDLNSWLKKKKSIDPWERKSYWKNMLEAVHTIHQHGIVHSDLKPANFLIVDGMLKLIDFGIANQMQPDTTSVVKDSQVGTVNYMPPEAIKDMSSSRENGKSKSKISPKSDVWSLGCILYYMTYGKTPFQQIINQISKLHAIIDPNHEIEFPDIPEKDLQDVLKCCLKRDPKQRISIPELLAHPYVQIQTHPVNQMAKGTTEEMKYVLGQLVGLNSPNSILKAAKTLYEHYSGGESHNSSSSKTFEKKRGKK
Description: Screening of a compound having a TTK kinase activity suppressing action using p38 MAPK peptide
A test substance 1.0 μL (solvent: 10% (v/v) DMSO), TTK solution 5 μL (composition: 4 μg/ml TTK, 25 mM Tris-HCl, pH7.5, 5 mM β-glycerophosphate, 2 mM DTT, 0.1 mM Na3VO4, 5 mM MgCl2, 0.1% (w/v)BSA) and a substrate solution 5 μL (composition: 60 μM p38 MAPK peptide, 60 μM ATP, 25 mM Tris-HCl, pH7.5, 5 mM β-glycerophosphate, 2 mM DTT, 0.1 mM Na3VO4, 5 mM MgCl2, 0.1% (w/v)BSA) were mixed in the wells of a 384-well microtiter plate (manufactured by Corning Incorporated) made of polypropylene and loaded in a constant temperature and humidity room.
From the resultant mixture, an aliquot of 1.7 μL was taken out and mixed with the reaction terminating solution (60 μl) in the wells of a 384-well microtiter plate (manufactured by Corning Incorporated) made of polypropylene. Thereafter, 40 μL of the mixture was transferred to a 384-well black NeutrAvidin plate (PIERCE), sealed and incubated under room temperature for 30 minutes. […] Similarly, the plate was washed with TTBS (100 μL) three times, 40 μl of a secondary antibody solution (Eu-N1 labeled Anti-mouse IgG (Perkin Elmer, #AD0124)) was added and incubated under room temperature for 30 minutes. After the plate was washed with TTBS (100 μL) five times, 40 μL of an enhance solution (Perkin Elmer) was added and incubated under room temperature for 5 minutes. […] Based on the fluorescence value in the absence of a test substance, the suppression activity of a test substance was measured.

A549 = A549 assay: screening of cancer cell growth inhibiting compound; format: cell-based; conditions: Homo sapiens, 72 h; A549 cells, three days, WST-8; read-out: A549 IC50
Procedure, shortened: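 A549 cells (1×10^4/ml) in D-MEM with 10% FBS were pre-incubated one day at 37 °C, then exposed to compound dilutions for three further days. Viable cell number read by WST-8 (1–4 hours), absorbance 450 nm (reference 620 nm); inhibition calculated relative to untreated wells.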

Cc1cccc(Oc2cc(NCC3CCOCC3)c3ncc(-c4ccc(C(=O)NC5CC5)cc4)n3n2)c1 [Example 2-102]
IC50 (TTK): 3 nM
IC50 (A549): 50 to 500 nM

Cc1ccc(Oc2cc(NCC3CCOCC3)c3ncc(-c4ccc(C(=O)NC5CC5)cc4)n3n2)cc1 [Example 2-103]
IC50 (TTK): 4.4 nM
IC50 (A549): 50 to 500 nM

O=C(NC1CC1)c1ccc(-c2cnc3c(NCC4CCOCC4)cc(Oc4cccc(F)c4)nn23)cc1 [Example 2-106]
IC50 (TTK): 6.4 nM
IC50 (A549): ≤ 50 nM

Cc1cccc(C)c1Oc1cc(NCC2CCOCC2)c2ncc(-c3ccc(C(=O)NC4CC4)cc3)n2n1 [Example 2-107]
IC50 (TTK): 34.4 nM
IC50 (A549): 50 to 500 nM

COc1cccc(Oc2cc(NCC3CCOCC3)c3ncc(-c4ccc(C(=O)NC5CC5)cc4)n3n2)c1 [Example 2-109]
IC50 (TTK): 3.3 nM
IC50 (A549): 50 to 500 nM

O=C(NC1CC1)c1ccc(-c2cnc3c(NCC4CCOCC4)cc(Oc4cccc(O)c4)nn23)cc1 [Example 2-110]
IC50 (TTK): 2.9 nM
IC50 (A549): 50 to 500 nM

O=C(NC1CC1)c1ccc(-c2cnc3c(NCC4CCOCC4)cc(Oc4cccc(C(F)(F)F)c4)nn23)cc1 [Example 2-111]
IC50 (TTK): 3.8 nM
IC50 (A549): 50 to 500 nM

COc1ccc(Oc2cc(NCC3CCOCC3)c3ncc(-c4ccc(C(=O)NC5CC5)cc4)n3n2)c(F)c1 [Example 2-112]
IC50 (TTK): 2.7 nM
IC50 (A549): ≤ 50 nM

O=C(NC1CC1)c1ccc(-c2cnc3c(NCC4CCOCC4)cc(Oc4cccc(Cl)c4)nn23)cc1 [Example 2-114]
IC50 (TTK): 2.5 nM
IC50 (A549): 50 to 500 nM

O=C(NC1CC1)c1ccc(-c2cnc3c(NCC4CCOCC4)cc(Oc4cccc(F)c4O)nn23)cc1 [Example 2-117]
IC50 (TTK): 2.9 nM
IC50 (A549): ≤ 50 nM

O=C(NC1CC1)c1ccc(-c2cnc3c(NCC4CCOCC4)cc(Oc4cc(F)ccc4O)nn23)cc1 [Example 2-118]
IC50 (TTK): 2.2 nM
IC50 (A549): ≤ 50 nM

O=C(NC1CC1)c1ccc(-c2cnc3c(NCC4CCCCC4)cc(NC4CCCCC4)nn23)cc1 [Example 2-125]
IC50 (TTK): 8.6 nM
IC50 (A549): 50 to 500 nM

CN1CCC(CNc2cc(NC3CCCCC3)nn3c(-c4ccc(C(=O)NC5CC5)cc4)cnc23)CC1 [Example 2-126]
IC50 (TTK): 23.6 nM
IC50 (A549): 50 to 500 nM

CC(=O)N1CCC(CNc2cc(NC3CCCCC3)nn3c(-c4ccc(C(=O)NC5CC5)cc4)cnc23)CC1 [Example 2-127]
IC50 (TTK): 5 nM
IC50 (A549): 50 to 500 nM

O=C(NC1CC1)c1ccc(-c2cnc3c(NCC4CCC4)cc(NC4CCCCC4)nn23)cc1 [Example 2-128]
IC50 (TTK): 7.4 nM
IC50 (A549): 50 to 500 nM

O=C(NC1CC1)c1ccc(-c2cnc3c(NCC4CCCC4)cc(NC4CCCCC4)nn23)cc1 [Example 2-129]
IC50 (TTK): 6.7 nM
IC50 (A549): 50 to 500 nM

O=C(NC1CC1)c1ccc(-c2cnc3c(NCCCCO)cc(NC4CCCCC4)nn23)cc1 [Example 2-130]
IC50 (TTK): 9.7 nM
IC50 (A549): 50 to 500 nM

O=C(NC1CC1)c1ccc(-c2cnc3c(NCC4CCSCC4)cc(NC4CCCCC4)nn23)cc1 [Example 2-131]
IC50 (TTK): 5.5 nM
IC50 (A549): 50 to 500 nM

O=C(NC1CC1)c1ccc(-c2cnc3c(NCC4CC4)cc(NC4CCCCC4)nn23)cc1 [Example 2-132]
IC50 (TTK): 6.8 nM
IC50 (A549): 50 to 500 nM

CCC(CC)CNc1cc(NC2CCCCC2)nn2c(-c3ccc(C(=O)NC4CC4)cc3)cnc12 [Example 2-133]
IC50 (TTK): 6.8 nM
IC50 (A549): 50 to 500 nM

O=C(NC1CC1)c1ccc(-c2cnc3c(NCc4ccc(F)cc4)cc(NC4CCCCC4)nn23)cc1 [Example 2-134]
IC50 (TTK): 6.6 nM
IC50 (A549): 50 to 500 nM
